Target: T1, Ara h 8.0101 (Arachis hypogaea, UniProt Q6VT83)
T1 construct: recombinant, 15N-labelled; N-terminal glycine (initiator Met apparently absent)
T1 sequence (Q6VT83 2-157): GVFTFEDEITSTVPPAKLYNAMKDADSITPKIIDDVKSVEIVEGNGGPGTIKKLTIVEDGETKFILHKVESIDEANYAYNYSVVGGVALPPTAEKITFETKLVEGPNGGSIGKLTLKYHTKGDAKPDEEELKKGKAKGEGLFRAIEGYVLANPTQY
Assay: 1H-15N HSQC NMR titration
Assay type: binding

- Kd: 760 ± 370 µM
SMILES: Oc1cc(O)c2c(c1)O[C@H](c1ccc(O)c(O)c1)[C@H](O)C2 [(-)-epicatechin]
